Active and inactive are the calls of the source.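 The calls were made as follows: active = raises KCNQ1 potassium channel current at one or more doses and a concentration response curve can be fitted; inactive = no activation at any dose, or no fittable curve.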
Target: Potassium voltage-gated channel subfamily KQT member 1 (Homo sapiens) (UniProt P51787)
Experiment: human KCNQ1 channel activators, SAR follow-up, automated patch clamp, CHO cells (AID 588673)

Potassium voltage-gated channel subfamily KQT member 1 (Homo sapiens), sequence (P51787 whole entry, looked up): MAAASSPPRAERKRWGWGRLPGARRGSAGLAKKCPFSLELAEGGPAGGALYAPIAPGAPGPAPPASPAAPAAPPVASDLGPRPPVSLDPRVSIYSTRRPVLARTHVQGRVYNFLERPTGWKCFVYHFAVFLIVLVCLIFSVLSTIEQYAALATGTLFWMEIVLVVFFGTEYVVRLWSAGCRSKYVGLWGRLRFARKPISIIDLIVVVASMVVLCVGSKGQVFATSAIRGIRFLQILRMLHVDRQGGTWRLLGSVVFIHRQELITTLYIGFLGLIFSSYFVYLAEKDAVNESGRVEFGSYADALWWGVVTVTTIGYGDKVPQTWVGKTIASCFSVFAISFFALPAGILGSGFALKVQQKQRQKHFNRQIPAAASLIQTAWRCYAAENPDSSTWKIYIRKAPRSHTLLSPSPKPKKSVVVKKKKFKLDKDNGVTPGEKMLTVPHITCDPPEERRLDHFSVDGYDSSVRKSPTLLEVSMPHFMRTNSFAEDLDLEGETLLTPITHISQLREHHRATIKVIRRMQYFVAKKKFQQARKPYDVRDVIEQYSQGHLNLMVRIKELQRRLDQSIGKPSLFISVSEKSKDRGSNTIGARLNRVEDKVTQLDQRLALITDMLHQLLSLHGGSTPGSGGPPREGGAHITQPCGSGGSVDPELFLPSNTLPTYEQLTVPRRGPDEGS

SMILES | IC50, inhibition of current [nM] | current activation, percent increase (at 30 µM (top of the series))
COc1ccc(-c2csc(NC(=O)C3CCCCN3S(=O)(=O)c3ccccc3)n2)cc1 (stereo not drawn) | 1660 | 
COc1ccc(-c2csc(NC(=O)[C@H]3CCCCN3S(=O)(=O)c3ccccc3)n2)cc1 | 1390 | 
COc1ccc(-c2csc(NC(=O)[C@@H]3CCCCN3S(=O)(=O)c3ccccc3)n2)cc1 |  | inactive
